The values that follow come from patent US7135467B2, “HIV integrase inhibitors” (priority 2003, dated 2006).

SMILES strings stand for the structures.

For this assay, the target named is T1, HIV-integrase (recombinant integrase) (Human immunodeficiency virus type 1 group M subtype B, UniProt P12497).
T1 construct: Recombinant integrase (0.26 ng) was incubated with the beads
The experiment in a line: HIV-Integrase Inhibition Activity (SPA bead strand-transfer assay). Type of assay: biochemical. As to conditions: recombinant integrase on biotin labeled substrate DNA/SPA beads, P33 labeled target DNA; read-out: Activity (IC50 against HIV-integrase). The method, then:
To evaluate in-vitro activity against HIV-integrase, 5 pmole of biotin labeled substrate DNA was bound to 100 μg of Streptavidin coated PVT SPA beads (Amersham Pharmacia Biotech). Recombinant integrase (0.26 ng) was incubated with the beads for 90 min at 37° C. Unbound enzyme was removed by washing the complex followed by addition of inhibitors and 0.1 fmol of P33 labeled target DNA. The reaction was stopped by adding EDTA to a final concentration of 10 mM. Samples were counted in TopCountNXT (Packard) and the CPM was used as a measure of integration. The reaction condition was as described in A. Engelman and R. Craigie, J. Virol. 69, 5908–5911 (1995). The sequences of substrate and target DNA were described in Nucleic Acid Research 22, 1121–1122 (1994). Activity equal to A refers to a compound having IC50=0.003 to 0.10 μM while B and C denote compounds the following IC50=0.1 to 1.0 μM and IC50≧1.0 μM respectively.
On to `Cn1c(N2CCCCS2(=O)=O)nc(C(=O)NCc2ccc(F)cc2)c(O)c1=O` [Compound 1, N-[(4-fluorophenyl)methyl]-1,6-dihydro-5-hydroxy-1-methyl-6-oxo-2-(tetrahydro-1,1-dioxido-2H-1,2-thiazin-2-yl)-4-pyrimidinecarboxamide], for which the IC50 is 3 to 100 nM.

Take `Cn1c(N2CCCCS2(=O)=O)nc(C(=O)NCc2ccc(Cl)c(Cl)c2)c(O)c1=O` [Compound 2, N-[(3,4-dichlorophenyl)methyl]-1,6-dihydro-5-hydroxy-1-methyl-6-oxo-2-(tetrahydro-1,1-dioxido-2H-1,2-thiazin-2-yl)-4-pyrimidinecarboxamide]: the IC50 was 3 to 100 nM.

For `Cn1c(N2CCCCS2(=O)=O)nc(C(=O)NCc2cccc(F)c2)c(O)c1=O` [Compound 3, N-[(3-fluorophenyl)methyl]-1,6-dihydro-5-hydroxy-1-methyl-6-oxo-2-(tetrahydro-1,1-dioxido-2H-1,2-thiazin-2-yl)-4-pyrimidinecarboxamide], the IC50 fell in the range of 100 to 1000 nM.

Turning to `Cn1c(N2CCCCS2(=O)=O)nc(C(=O)NCc2ccc(Cl)cc2)c(O)c1=O` [Compound 4, N-[(4-chlorophenyl)methyl]-1,6-dihydro-5-hydroxy-1-methyl-6-oxo-2-(tetrahydro-1,1-dioxido-2H-1,2-thiazin-2-yl)-4-pyrimidinecarboxamide], the IC50 is 3 to 100 nM.

Regarding `Cn1c(N2CCCCS2(=O)=O)nc(C(=O)NCc2cccc(Cl)c2)c(O)c1=O` [Compound 5, N-[(3-chlorophenyl)methyl]-1,6-dihydro-5-hydroxy-1-methyl-6-oxo-2-(tetrahydro-1,1-dioxido-2H-1,2-thiazin-2-yl)-4-pyrimidinecarboxamide], the IC50 fell in the range of 3 to 100 nM.

As for `Cn1c(N2CCCCS2(=O)=O)nc(C(=O)NCCCc2ccc(F)cc2)c(O)c1=O` [Compound 6, N-[3-(4-fluorophenyl)propyl]-1,6-dihydro-5-hydroxy-1-methyl-6-oxo-2-(tetrahydro-1,1-dioxido-2H-1,2-thiazin-2-yl)-4-pyrimidinecarboxamide], the half-inhibitory concentration (IC50) lay within 3 to 100 nM.

`Cn1c(N2CCCCS2(=O)=O)nc(C(=O)NCCCc2ccc(Cl)c(Cl)c2)c(O)c1=O` [Compound 7, N-[3-(3,4-dichlorophenyl)propyl]-1,6-dihydro-5-hydroxy-1-methyl-6-oxo-2-(tetrahydro-1,1-dioxido-2H-1,2-thiazin-2-yl)-4-pyrimidinecarboxamide]: the IC50 is no less than 1000 nM.

For `Cc1ccc(CNC(=O)c2nc(N3CCCCS3(=O)=O)n(C)c(=O)c2O)cc1` [Compound 8, 1,6-dihydro-5-hydroxy-1-methyl-N-[(4-methylphenyl)methyl]-6-oxo-2-(tetrahydro-1,1-dioxido-2H-1,2-thiazin-2-yl)-4-pyrimidinecarboxamide], the IC50 fell in the range of 3 to 100 nM.

Regarding `Cc1cccc(CNC(=O)c2nc(N3CCCCS3(=O)=O)n(C)c(=O)c2O)c1` [Compound 9, 1,6-dihydro-5-hydroxy-1-methyl-N-[(3-methylphenyl)methyl]-6-oxo-2-(tetrahydro-1,1-dioxido-2H-1,2-thiazin-2-yl)-4-pyrimidinecarboxamide], the IC50 lay in the range of 3 to 100 nM.

For the compound `COc1ccc(CNC(=O)c2nc(N3CCCCS3(=O)=O)n(C)c(=O)c2O)cc1` [Compound 10, 1,6-dihydro-5-hydroxy-N-[(4-methoxyphenyl)methyl]-1-methyl-6-oxo-2-(tetrahydro-1,1-dioxido-2H-1,2-thiazin-2-yl)-4-pyrimidinecarboxamide], the half-inhibitory concentration (IC50) fell in the range of 3 to 100 nM.

With `COc1cccc(CNC(=O)c2nc(N3CCCCS3(=O)=O)n(C)c(=O)c2O)c1` [Compound 11, 1,6-dihydro-5-hydroxy-N-[(3-methoxyphenyl)methyl]-1-methyl-6-oxo-2-(tetrahydro-1,1-dioxido-2H-1,2-thiazin-2-yl)-4-pyrimidinecarboxamide], the IC50 was 100 to 1000 nM.

As for `Cn1c(N2CCCCS2(=O)=O)nc(C(=O)NCc2cc(Cl)cc(Cl)c2)c(O)c1=O` [Compound 12, N-[(3,5-dichlorophenyl)methyl]-1,6-dihydro-5-hydroxy-1-methyl-6-oxo-2-(tetrahydro-1,1-dioxido-2H-1,2-thiazin-2-yl)-4-pyrimidinecarboxamide], the IC50 lay within 3 to 100 nM.

As for `Cc1cc(CNC(=O)c2nc(N3CCCCS3(=O)=O)n(C)c(=O)c2O)ccc1F` [Compound 13, N-[(4-fluoro-3-methylphenyl)methyl]-1,6-dihydro-5-hydroxy-1-methyl-6-oxo-2-(tetrahydro-1,1-dioxido-2H-1,2-thiazin-2-yl)-4-pyrimidinecarboxamide], the IC50 was in the range of 3 to 100 nM.

Regarding `Cc1ccc(CNC(=O)c2nc(N3CCCCS3(=O)=O)n(C)c(=O)c2O)cc1F` [Compound 14, N-[(3-fluoro-4-methylphenyl)methyl]-1,6-dihydro-5-hydroxy-1-methyl-6-oxo-2-(tetrahydro-1,1-dioxido-2H-1,2-thiazin-2-yl)-4-pyrimidinecarboxamide], the IC50 is 3 to 100 nM.

For the compound `Cn1c(N2CCCCS2(=O)=O)nc(C(=O)NCc2ccc(F)c(F)c2)c(O)c1=O` [Compound 15, N-[(3,4-difluorophenyl)methyl]-1,6-dihydro-5-hydroxy-1-methyl-6-oxo-2-(tetrahydro-1,1-dioxido-2H-1,2-thiazin-2-yl)-4-pyrimidinecarboxamide], the IC50 fell in the range of 3 to 100 nM.

In the case of `Cn1c(N2CCCCS2(=O)=O)nc(C(=O)NCCc2ccc(F)cc2)c(O)c1=O` [Compound 16, N-[2-(4-fluorophenyl)ethyl]-1,6-dihydro-5-hydroxy-1-methyl-6-oxo-2-(tetrahydro-1,1-dioxido-2H-1,2-thiazin-2-yl)-4-pyrimidinecarboxamide], the IC50 was no less than 1000 nM.

Turning to `Cn1c(N2CCCCS2(=O)=O)nc(C(=O)NCc2ccc(F)cc2F)c(O)c1=O` [Compound 17, N-[(2,4-difluorophenyl)methyl]-1,6-dihydro-5-hydroxy-1-methyl-6-oxo-2-(tetrahydro-1,1-dioxido-2H-1,2-thiazin-2-yl)-4-pyrimidinecarboxamide], the IC50 was in the range of 3 to 100 nM.

As to `Cn1c(N2CCCCS2(=O)=O)nc(C(=O)NCc2ccc(F)c(Cl)c2)c(O)c1=O` [Compound 18, N-[(3-chloro-4-fluorophenyl)methyl]-1,6-dihydro-5-hydroxy-1-methyl-6-oxo-2-(tetrahydro-1,1-dioxido-2H-1,2-thiazin-2-yl)-4-pyrimidinecarboxamide], the IC50 lay within 3 to 100 nM.

`Cc1ccc(CNC(=O)c2nc(N3CCCCS3(=O)=O)n(C)c(=O)c2O)cc1C` [Compound 19, N-[(3,4-dimethylphenyl)methyl]-1,6-dihydro-5-hydroxy-1-methyl-6-oxo-2-(tetrahydro-1,1-dioxido-2H-1,2-thiazin-2-yl)-4-pyrimidinecarboxamide]: the IC50 was in the range of 3 to 100 nM.

Regarding `Cn1c(N2CCCCS2(=O)=O)nc(C(=O)NCc2ccc(F)c(C(F)(F)F)c2)c(O)c1=O` [Compound 20, N-[[4-fluoro-3-(trifluoromethyl)phenyl]methyl]-1,6-dihydro-5-hydroxy-1-methyl-6-oxo-2-(tetrahydro-1,1-dioxido-2H-1,2-thiazin-2-yl)-4-pyrimidinecarboxamide], the half-inhibitory concentration (IC50) was 3 to 100 nM.

As to `Cn1c(N2CCCCS2(=O)=O)nc(C(=O)NCCc2cccc(F)c2)c(O)c1=O` [Compound 21, N-[2-(3-fluorophenyl)ethyl]-1,6-dihydro-5-hydroxy-1-methyl-6-oxo-2-(tetrahydro-1,1-dioxido-2H-1,2-thiazin-2-yl)-4-pyrimidinecarboxamide], the IC50 is no less than 1000 nM.

On to `COc1ccc(CNC(=O)c2nc(N3CCCCS3(=O)=O)n(C)c(=O)c2O)c(OC)c1` [Compound 22, N-[(2,4-dimethoxyphenyl)methyl]-1,6-dihydro-5-hydroxy-1-methyl-6-oxo-2-(tetrahydro-1,1-dioxido-2H-1,2-thiazin-2-yl)-4-pyrimidinecarboxamide], for which the IC50 was in the range of 3 to 100 nM.

As for `Cc1ccc(CNC(=O)c2nc(N3CCCCS3(=O)=O)n(C)c(=O)c2O)o1` [Compound 23, 1,6-dihydro-5-hydroxy-1-methyl-N-[(5-methyl-2-furanyl)methyl]-6-oxo-2-(tetrahydro-1,1-dioxido-2H-1,2-thiazin-2-yl)-4-pyrimidinecarboxamide], the IC50 lay in the range of 3 to 100 nM.

For `COc1ccccc1CNC(=O)c1nc(N2CCCCS2(=O)=O)n(C)c(=O)c1O` [Compound 24, 1,6-dihydro-5-hydroxy-N-[(2-methoxyphenyl)methyl]-1-methyl-6-oxo-2-(tetrahydro-1,1-dioxido-2H-1,2-thiazin-2-yl)-4-pyrimidinecarboxamide], the IC50 lay within 3 to 100 nM.

On to `Cn1c(N2CCCCS2(=O)=O)nc(C(=O)NCC(c2ccccc2)c2ccccc2)c(O)c1=O` [Compound 25, N-(2,2-diphenylethyl)-1,6-dihydro-5-hydroxy-1-methyl-6-oxo-2-(tetrahydro-1,1-dioxido-2H-1,2-thiazin-2-yl)-4-pyrimidinecarboxamide], for which the IC50 is no less than 1000 nM.

As to `Cn1c(N2CCCCS2(=O)=O)nc(C(=O)NCCc2ccc(Cl)cc2)c(O)c1=O` [Compound 26, N-[2-(4-chlorophenyl)ethyl]-1,6-dihydro-5-hydroxy-1-methyl-6-oxo-2-(tetrahydro-1,1-dioxido-2H-1,2-thiazin-2-yl)-4-pyrimidinecarboxamide], the IC50 was no less than 1000 nM.

Regarding `COc1ccc(CCNC(=O)c2nc(N3CCCCS3(=O)=O)n(C)c(=O)c2O)cc1` [Compound 27, 1,6-dihydro-5-hydroxy-N-[2-(4-methoxyphenyl)ethyl]-1-methyl-6-oxo-2-(tetrahydro-1,1-dioxido-2H-1,2-thiazin-2-yl)-4-pyrimidinecarboxamide], the 50% inhibitory concentration (IC50) is no less than 1000 nM.

In general, IC50 refers to the point on the concentration scale where inhibition reaches its midpoint.
